Results on 28 molecules are retold here after PMC10572743 (International Journal of Molecular Sciences, 2023).

Experiment [1] deals with TNF-α production in PBMC stimulated with LPS. Kind of experiment: Inhibition of TNF-α production in PBMCs stimulated with LPS (ELISA). The following applies: Homo sapiens, average of 2 independent experiments (donors), LPS 1 ng/mL, 24 h, read-out: IC50/μM (av.) PMBC-LPS/TNF-α. It is filed as cell-based. How it is done:
PBMC isolation. Human peripheral blood mononuclear cells (PBMCs) were isolated from buffy coats obtained from healthy adult volunteers. The buffy coats were diluted with sterile PBS and layered over Lymphoprep (Axis-Shield Diagnostics, Dundee, UK). Tubes were centrifuged for 35 min at 400× g (RT; acceleration and break turned off). After centrifugation, the mononuclear ring was collected, transferred into a new 50 mL tube, and washed thrice with sterile PBS. The remaining erythrocytes were lysed with an isotonic solution of ammonium chloride (150 mM; Kemika, Zagreb, Croatia).
Treatment and stimulation of human PBMCs. Immediately after isolation, 200,000 PBMCs were seeded per well of a 96-well plate. Compounds were dissolved in 100% dimethyl sulfoxide (DMSO, Sigma, Darmstadt, Germany), and serial dilutions in DMSO were prepared and added to cells, with starting concentration for test compounds 100 µM or 1 µM for reference dexamethasone. […] Plates were incubated for 24 h at 37 °C, 5% CO2, followed by the collection of supernatants for measurement of TNF-α and cell viability assessment.
Enzyme-linked immunosorbent assay (ELISA) and cytotoxicity analysis. TNFα concentration in PBMC supernatants was measured using ELISA assay, using antibodies obtained from BD Pharmingen (San Diego, CA, USA) and recombinant human TNFα protein (standard) from R&D Systems (Minneapolis, MN, USA). Lumitrac 600 384-well plates (Greiner Bio-One, Kremsmünster, Austria) were coated overnight with 1 µg/mL of TNFα capture antibody diluted in phosphate-buffered saline (PBS, Thermo Fisher Scientific, Waltham, MA, USA), followed by a washing step and blocking with 5% sucrose in assay diluent (1% bovine serum albumin (BSA; Sigma, Darmstadt, Germany) in PBS) for 4 h at RT. After the blocking step, the plates were washed, and samples/standards were added to the plates. After overnight incubation at 4 °C, detection antibodies diluted in assay diluent to a final concentration of 250 ng/mL were added. Following incubation for 2 h at RT, plates were washed, and streptavidin-HRP (Thermo Fisher Scientific, Waltham, MA, USA) solution was added (final concentration 500 ng/mL, prepared in assay diluent). Plates were incubated for 20 min at RT in the dark and washed, followed by adding Luminol substrate (Sigma, Darmstadt, Germany). […] To evaluate cell viability, Cell Titer Glo reagent was used (Promega, Madison, WI, USA) according to the manufacturer’s instructions.
Data analysis. For ELISA, the blank was subtracted from measured RLU values, and TNFα concentrations in samples were interpolated from the standard curve. QC parameters for each plate were calculated from raw data. […] For viability assessment, the average luminescence value was calculated from all trigger vehicle samples, and the percentage of vehicle value was calculated for all samples. The compound effect was considered cytotoxic if reduction from a vehicle was ≥20%, and these concentrations were excluded from further analysis. IC50 values of tested compounds were determined in GraphPad Prism 9 software using nonlinear regression curve fit (four parameters, with variable slope).

Experiment [2] concerns the target AChE (Electrophorus electricus, UniProt O42275). Description: biochemical. It is filed as biochemical. To be noted: for inhibition at 500 µM: at maximal concentration tested 500 μM; for inhibition at 250 µM: at maximal concentration tested 250 μM; for selectivity AChE over BChE: from IC50 values of Table 2; for inhibition: at maximal concentration tested 350 μM.
For experiment [3], the target named is BChE (Equus caballus, UniProt P81908). Kind of experiment: biochemical. In kind it is biochemical. The following applies: for inhibition at 500 µM / inhibition at 250 µM / inhibition at 350 µM: read-out: BChE % Inhibition.

SMILES strings stand for the structures.

Sequence of BChE (P81908 whole entry): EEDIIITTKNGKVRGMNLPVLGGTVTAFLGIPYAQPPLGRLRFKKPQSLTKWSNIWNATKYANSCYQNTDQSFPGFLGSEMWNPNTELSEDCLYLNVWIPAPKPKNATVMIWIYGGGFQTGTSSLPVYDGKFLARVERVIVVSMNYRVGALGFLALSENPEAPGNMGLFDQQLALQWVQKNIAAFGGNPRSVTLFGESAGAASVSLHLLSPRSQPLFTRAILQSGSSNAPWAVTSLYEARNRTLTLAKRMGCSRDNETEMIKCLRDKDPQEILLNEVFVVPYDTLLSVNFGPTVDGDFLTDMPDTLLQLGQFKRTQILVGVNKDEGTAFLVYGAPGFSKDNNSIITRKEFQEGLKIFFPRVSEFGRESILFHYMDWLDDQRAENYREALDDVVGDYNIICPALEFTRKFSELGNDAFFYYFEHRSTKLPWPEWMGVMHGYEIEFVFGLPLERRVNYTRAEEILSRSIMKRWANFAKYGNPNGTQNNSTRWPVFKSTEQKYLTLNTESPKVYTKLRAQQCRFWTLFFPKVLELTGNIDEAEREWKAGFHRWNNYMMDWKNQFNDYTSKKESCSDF
Sequence of AChE (O42275 24-633): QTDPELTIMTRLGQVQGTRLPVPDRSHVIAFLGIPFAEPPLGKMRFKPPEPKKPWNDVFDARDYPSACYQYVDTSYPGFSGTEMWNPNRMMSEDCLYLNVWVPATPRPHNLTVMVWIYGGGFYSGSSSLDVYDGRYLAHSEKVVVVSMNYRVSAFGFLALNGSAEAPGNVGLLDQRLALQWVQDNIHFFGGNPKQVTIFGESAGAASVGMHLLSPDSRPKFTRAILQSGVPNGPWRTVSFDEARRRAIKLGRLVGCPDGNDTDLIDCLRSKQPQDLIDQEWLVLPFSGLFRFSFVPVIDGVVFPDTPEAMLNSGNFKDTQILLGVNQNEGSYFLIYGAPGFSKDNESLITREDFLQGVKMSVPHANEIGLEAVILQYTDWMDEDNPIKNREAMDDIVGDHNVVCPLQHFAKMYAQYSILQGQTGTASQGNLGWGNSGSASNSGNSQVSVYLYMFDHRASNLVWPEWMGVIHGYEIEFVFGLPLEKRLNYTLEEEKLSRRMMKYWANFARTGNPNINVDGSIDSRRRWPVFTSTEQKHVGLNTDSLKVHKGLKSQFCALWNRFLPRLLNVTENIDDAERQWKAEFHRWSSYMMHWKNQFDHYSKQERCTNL

The inhibition is the change of the read-out against control, counted positive when it falls. As for `COc1ccc2ccc3nnn(C(C)C)c3c2c1` [Compound 1, 1-isopropyl-8-methoxy-1H-naphtho[1,2-d][1–3]triazole], the IC50 in experiment [1] came out at 8.1 µM; in experiment [2] it was 329 µM; in experiment [3] it was 261 µM. In addition, the inhibition at 500 µM in experiment [2] worked out at 58.1 ± 1.6%; in experiment [3], 65.3 ± 0.7%.

Turning to `C=CCCn1nnc2ccc3ccc(OC)cc3c21` [Compound 2, 1-(but-3-en-1-yl)-8-methoxy-1H-naphtho[1,2-d][1–3]triazole], the IC50 in experiment [1] is 10.4 µM; in experiment [2], 91.8 µM; in experiment [3], 110 µM. The inhibition at 500 µM came to 77.9 ± 3.6% in experiment [2] and 80.2 ± 0.7% in experiment [3].

In the case of `C=CCCCn1nnc2ccc3ccc(OC)cc3c21` [Compound 3, 8-methoxy-1-(pent-4-en-1-yl)-1H-naphtho[1,2-d][1–3]triazole], the IC50 in experiment [1] came to 12 µM; in experiment [2] it was 51.3 µM; in experiment [3], 53.5 µM. For the same molecule, the inhibition at 250 µM in experiment [2] came out at 64.8 ± 5.3%; in experiment [3], 76.6 ± 1.8%.

As for `COc1ccc2ccc3nnn(Cc4ccc(F)cc4)c3c2c1` [Compound 4, 1-(4-fluorobenzyl)-8-methoxy-1H-naphtho[1,2-d][1–3]triazole], the IC50 in experiment [1] stood at 19.1 µM. The inhibition at 500 µM was found to be 35.1 ± 2% in experiment [2] and 25 ± 0.5% in experiment [3].

`COc1ccc2ccc3nnn(Cc4cccc(F)c4)c3c2c1` [Compound 5, 1-(3-fluorobenzyl)-8-methoxy-1H-naphtho[1,2-d][1–3]triazole]: the IC50 in experiment [1] was greater than 100 µM; in experiment [2] it was 55.5 µM. Moreover, the inhibition at 250 µM is 80.8 ± 1.8% in experiment [2] and 43.8 ± 1.8% in experiment [3]. For the same molecule, in experiment [2], the “selectivity AChE over BChE” value is given as “Selective inhibition toward AChE”.

Take `COc1cccc(Cn2nnc3ccc4ccc(OC)cc4c32)c1` [Compound 6, 8-methoxy-1-(3-methoxybenzyl)-1H-naphtho[1,2-d][1–3]triazole]: the IC50 in experiment [1] was 1.9 µM. Besides, in experiment [2], the IC50 worked out at 177 µM, the inhibition at 250 µM was found to be 78.6 ± 3.8% and the “selectivity AChE over BChE” value was “Selective inhibition toward AChE”. Also, the inhibition at 250 µM in experiment [3] came out at 47.8 ± 0.5%.

On to `COc1ccc2ccc3nnn(Cc4cccs4)c3c2c1` [Compound 7, 8-methoxy-1-(thiophen-2-ylmethyl)-1H-naphtho[1,2-d][1–3]triazole], for which the results for the IC50 in experiment [1], in experiment [2] and in experiment [3] were greater than 100 µM, 110 µM and 294 µM, respectively. Further, the inhibition at 500 µM was 81.4 ± 0.8% in experiment [2] and 60.9 ± 0.4% in experiment [3].

For the molecule `C=CCn1nnc2ccc3sc(C)cc3c21` [Compound 8, 1-allyl-7-methyl-1H-thieno[3′,2′:3,4]benzo[1,2-d][1–3]triazole], the IC50 in experiment [1] is greater than 100 µM. Moreover, the inhibition in experiment [2] turned out to be 43.5 ± 2.1%. Also, in experiment [3], the IC50 came out at 206 µM and the inhibition at 350 µM is 62.6 ± 0.2%.

Regarding `Cc1cc2c(ccc3nnn(Cc4ccc(F)cc4)c32)s1` [Compound 9, 1-(4-fluorobenzyl)-7-methyl-1H-thieno[3′,2′:3,4]benzo[1,2-d][1–3]triazole], the values for the IC50 in experiment [1], in experiment [2] and in experiment [3] were greater than 100 µM, 83 µM and 69.8 µM, respectively. The inhibition in experiment [2] worked out at 78.8 ± 1.9%. Further, the inhibition at 350 µM in experiment [3] amounted to 76.1 ± 0.8%.

In the case of `COc1ccc(Cn2nnc3ccc4sc(C)cc4c32)cc1` [Compound 10, 1-(4-methoxybenzyl)-7-methyl-1H-thieno[3′,2′:3,4]benzo[1,2-d][1–3]triazole], the IC50 in experiment [1] is 19.2 µM. Also, in experiment [2], the IC50 was determined as 66.6 µM and the inhibition came out at 83.6 ± 3.7%. Moreover, in experiment [3], the IC50 turned out to be 99.7 µM and the inhibition at 350 µM amounted to 65.2 ± 0.3%.

For `Cc1cc2c(ccc3nnn(Cc4cccs4)c32)s1` [Compound 11, 7-methyl-1-(thiophen-2-ylmethyl)-1H-thieno[3′,2′:3,4]benzo[1,2-d][1–3]triazole], the IC50 in experiment [1] worked out at 38.7 µM. In experiment [2], this molecule had an IC50 of 218 µM and an inhibition of 71.3 ± 0.3%. Also, in experiment [3], the IC50 was determined as 123 µM and the inhibition at 350 µM came out at 72.3 ± 5.6%.

Take `Cc1cc2c(ccc3nnn(Cc4ccco4)c32)s1` [Compound 12, 1-(furan-2-ylmethyl)-7-methyl-1H-thieno[3′,2′:3,4]benzo[1,2-d][1–3]triazole]: in experiment [1], the IC50 came to 40.6 µM. In addition, the inhibition in experiment [2] was found to be 41.8 ± 1%. For the same molecule, the inhibition at 350 µM in experiment [3] was found to be 46.1%.

Take `C=CCCCn1nnc2ccc3sccc3c21` [Compound 13, 1-(pent-4-en-1-yl)-1H-thieno[3′,2′:3,4]benzo[1,2-d][1–3]triazole]: the IC50 in experiment [1] stood at 21.3 µM; in experiment [3], 40.7 µM. Further, the inhibition at 250 µM in experiment [2] came to 46.4 ± 2.5%; in experiment [3] it was 86.5 ± 5%. The “selectivity BChE over AChE” value in experiment [3] (from IC50 values of Table 2) is listed as “selective inhibition for BChE”.

Turning to `OCCCCn1nnc2ccc3sccc3c21` [Compound 14], in experiment [1], the IC50 is 38.8 µM.

As to `c1cc2c(ccc3nnn(CCCN4CCOCC4)c32)s1` [Compound 16], the IC50 in experiment [1] was greater than 100 µM.

Regarding `CCOC(=O)CCn1nnc2ccc3sccc3c21` [Compound 17], in experiment [1], the IC50 was greater than 100 µM.

Regarding `Fc1ccc(Cn2nnc3ccc4sccc4c32)cc1` [Compound 18], in experiment [1], the IC50 turned out to be 27.7 µM.

Take `COc1ccc(CCn2nnc3ccc4sccc4c32)cc1` [Compound 21]: the IC50 in experiment [1] came to 17 µM.

Consider `c1csc(Cn2nnc3ccc4sccc4c32)c1` [Compound 22], for which the IC50 in experiment [1] stood at 16.1 µM.

With `OCCCCn1nnc2c1-c1ccsc1CC2` [Compound 23], in experiment [1], the IC50 was greater than 100 µM.

`c1cc2c(s1)CCc1nnn(CCN3CCOCC3)c1-2` [Compound 24]: the IC50 in experiment [1] is greater than 100 µM.

As to `c1cc2c(s1)CCc1nnn(CCCN3CCOCC3)c1-2` [Compound 25], the IC50 in experiment [1] was greater than 100 µM.

For the molecule `Cc1nc2c(ccc3sccc32)s1` [Compound 27], the IC50 in experiment [1] is 12.2 µM.

For the molecule `CC(C)c1nc2ccc3sccc3c2s1` [Compound 28], the IC50 in experiment [1] was greater than 100 µM.

Take `Clc1nc2c(ccc3sccc32)s1` [Compound 29]: in experiment [1], the IC50 is greater than 100 µM.

On to `FC(F)(F)c1nc2c(ccc3sccc32)s1` [Compound 30], for which the IC50 in experiment [1] was greater than 100 µM.

Consider `CC(=O)Nc1nc2c(ccc3sccc32)s1` [Compound 31], for which the IC50 in experiment [1] is greater than 100 µM.

Regarding `C[C@@H]1C[C@H]2[C@@H]3CCC4=CC(=O)C=C[C@]4(C)[C@@]3(F)[C@@H](O)C[C@]2(C)[C@@]1(O)C(=O)CO` [dexamethasone, reference compound], the IC50 in experiment [1] came out at 0.007 µM.
